Patent publication US8648012B2, “Herbicidal compositions comprising naptalam” (BASF SE, priority 2009, dated 2014)

What was measured:
TRZAW = assay: Example 5: postemergence wheat selectivity of dicamba plus naptalam; type: in vivo, Triticum aestivum; conditions: 8 DAT
Description: (§1) In all use examples, plants were grown in a greenhouse environment.
(§2) Naptalam was used as a commercial SL formulation containing 240 g/l of naptalam (Alanap-L from Cheminova). Clopyralid was used as a commercial SL formulation containing 360 g/l of clopyralid (Stinger of Dow Agroscience). Picloram was used as a commercial SL formulation containing 240 g/l of picloram (Tordon 22K of Dow Agroscience). A mixture of 2,4-D+MCPP+Dicamba was used as a commercial SL formulation containing 283 g/l of 2,4-D, 63 g/l of MCPP and 25 g/l of Dicamba (Trimec Classic of PBI Gordon Corp.). Dicamba was used as a commercial SL formulation containing 480 g/l of Dicamba (Clarity BASF).
(§3) The evaluation for the plant damage or injury caused by the chemical compositions was carried out using a scale from 0 to 100%, when compared with the untreated control plants. Here, 0 means no damage and 100 means complete destruction of the plants. I50 values were estimated from % injury data at different application rates by non-linear regression of log-logistic dose-response curves.
Seedlings of TRZAW were treated with five different rates of dicamba between 14 and 1400 g ae/ha when they were 12-14 cm in height. In addition, DFFP or naptalam at 70 g ae/ha were applied either alone or in combination with dicamba treatments. All treatment mixtures contained 0.25% (v/v) non-ionic surfactant plus 1% (w/v) ammonium sulfate. Following treatment, plants were placed in a completely randomized design with four replications per treatment. Percent injury data was collected 8 DAT.

[1] = tested on: Winter wheat (Triticum aestivum, TRZAW); assay: Example 3: preemergence crop selectivity of dicamba plus naptalam; type: in vivo; conditions: 13 DAT
Description: as §1, §2, §3
Winter wheat (Triticum aestivum, TRZAW) seeds were sown into soil, and the following day treated with five different rates of dicamba between 5.6 and 560 g ae/ha. Diflufenzopr (DFFP) or naptalam at rates of 224 g ae/ha was applied either alone or in combination with dicamba treatments. Following application, pots were placed in a completely randomized design with four replications per treatment. Percent injury data was collected 13 DAT.

[2] = tested on: perennial ryegrass (Lolium perenne, LOLPE); assay: Example 4: postemergence turf selectivity of dicamba plus naptalam; type: in vivo; conditions: 13 DAT
Description: as §1, §2, §3
(§4) Seedlings of tall fescue (Festuca arundinacea, FESAR) or perennial ryegrass (Lolium perenne, LOLPE) were treated with five different rates of dicamba between 28 and 2800 g ae/ha when they were 10-14 cm in height. DFFP or naptalam at rates of 140 g ae/ha were applied either alone or in combination with dicamba treatments. All treatment mixtures contained 0.25% (v/v) non-ionic surfactant plus 1% (w/v) ammonium sulfate. Following treatment, plants were placed in a completely randomized design with four replications per treatment. Percent injury data was collected 13 DAT.

[3] = tested on: tall fescue (Festuca arundinacea, FESAR); assay: as above; type: in vivo; conditions: 13 DAT
Description: as §1, §2, §3, §4

[4] = tested on: common lambsquarters (Chenopodium album; CHEAL); assay: Example 6: weed control of clopyralid or picloram plus naptalam mixtures; type: in vivo; conditions: postemergence
Description: (§5) Seedlings of common amaranth (Amaranthus retroflexus AMARE) and common lambsquarters (Chenopodium album; CHEAL), each 8 to 10 cm in height, were treated with postemergence applications of either clopyralid at 53.5 g ae/ha, picloram at 5.6 g ae/ha or naptalam at 140 g ae/ha, or the combination of clopyralid and naptalam at 53.5 g ae/ha and 140 g ae/ha, or the combination of picloram and naptalam at 5.6 g ae/ha and 140 g ae/ha, respectively, when they were 8-10 cm in height. All treatment mixtures contained 0.25% (v/v) non-ionic surfactant. […] Percent injury data was collected 10 days after treatment (DAT).

[5] = tested on: common amaranth (Amaranthus retroflexus AMARE); assay: as above; type: in vivo; conditions: postemergence
Description: as §5

[6] = tested on: sunflower (helianthus sp. HELSS); assay: Example 8: weed control of clopyralid+naptalam mixtures; type: in vivo; conditions: postemergence
Description: Seedlings of sunflower (helianthus sp. HELSS) were treated with postemergence applications of either clopyralid at 210 g ae/ha or at 105 g ae/ha, or naptalam at 56 g ae/ha, or the combination of clopyralid and naptalam at 210+56 g ae/ha or at 105+56 g ae/ha, respectively, when they were 8-10 cm in height. All treatment mixtures contained 0.25% (v/v) non-ionic surfactant. […] Percent injury data was collected 10 days after treatment (DAT).

[7] = tested on: common lambsquarters (Chenopodium album; CHEAL); assay: Example 1: postemergence weed control of dicamba plus naptalam mixtures, greenhouse; type: in vivo; conditions: 10 DAT
Description: as §1, §2, §3
(§6) 22 ff. E=X+Y−(X·Y/100) where • X=effect in percent using herbicide A at an application rate a; • Y=effect in percent using herbicide B at an application rate b; • E=expected effect (in %) of A+B at application rates a+b.
(§7) The value E corresponds to the effect (plant damage or injury) which is to be expected if the activity of the individual compounds is just additive. If the observed effect is higher than the value E calculated according to Colby, a synergistic effect is present.
(§8) Seedlings of velvetleaf (Abutilon theophrasti; ABUTH), Palmer amaranth (Amaranthus palmeri; AMAPA), and common lambsquarters (Chenopodium album; CHEAL) were treated with postemergence applications of either dicamba at 140 or 280 g ae/ha, naptalam at 56 g ae/ha, or the combination of dicamba and naptalam at 140 and 56 g ae/ha, respectively, when they were 10-12 cm in height. All treatment mixtures contained 0.25% (v/v) non-ionic surfactant plus 1% (w/v) ammonium sulfate. Plants were placed in a completely randomized design with four replications per treatment. Percent injury data was collected 10 days after treatment (DAT).

[8] = tested on: Palmer amaranth (Amaranthus palmeri; AMAPA); assay: as above; type: in vivo; conditions: 10 DAT
Description: as §1, §2, §3, §6, §7, §8

[9] = tested on: velvetleaf (Abutilon theophrasti; ABUTH); assay: as above; type: in vivo; conditions: 10 DAT
Description: as §1, §2, §3, §6, §7, §8

[10] = tested on: sunflower (helianthus sp. HELSS); assay: Example 7: weed control of 2,4-D+MCPP+dicamba+naptalam mixtures; type: in vivo; conditions: postemergence, naptalam 56 g ae/ha
Description: as §1, §2, §3
Plants were placed in a completely randomized design with four replications per treatment. Percent injury data was collected 10 days after treatment (DAT).

CHEAL = conditions: naptalam 0 g ae/ha
Description: as §1, §2, §3
(§9) Seedlings of ABUTH or CHEAL were treated with five different rates of dicamba between 0.14 and 140 g ae/ha when they were 10-12 cm in height. Naptalam was mixed with dicamba at rates of 0, 28, 35, 47, 70, or 140 g ae/ha to each dose-response series. All treatment mixtures included the addition of 0.25% (v/v) non-ionic surfactant and 1% (w/v) ammonium sulfate. Plants were placed in a completely randomized design with four replications per treatment. Percent injury data was collected 11 DAT and used to estimate the amount of dicamba necessary to obtain 50% injury (I50). […] estimates for solo applications of dicamba (I50 (—NPA)) were compared with I50 estimates for the combined application of dicamba and naptalam (I50 (+NPA)) to determine the relative increase of dicamba activity through the addition of naptalam.

ABUTH = conditions: naptalam 0 g ae/ha
Description: as §1, §2, §3, §9

[11] = DFFP 140 g ae/ha alone (dicamba 0)
[12] = naptalam 140 g ae/ha alone (dicamba 0)

## C/C(=N\NC(=O)Nc1cc(F)cc(F)c1)c1ncccc1C(=O)O [DFFP, diflufenzopyr]
TRZAW; DFFP 70 g ae/ha alone (dicamba 0)
  TRZAW Mean % Injury: 8.8%
[1]; DFFP 224 g ae/ha alone (dicamba 0)
  TRZAW Mean % Injury: 61.3%
[2]; [11]
  LOLPE Mean % Injury: 30.0 c %
[3]; [11]
  FESAR Mean % Injury: 38.8 b %

## O=C(O)c1nc(Cl)ccc1Cl [Clopyralid, clopyralid]
[4]; clopyralid 53.5 g ae/ha
  Mean % Control (10 DAT) CHEAL: 25%
[5]; clopyralid 53.5 g ae/ha
  Mean % Control (10 DAT) AMARE: 23%
[6]; clopyralid 105 g ae/ha
  Mean % Control (10 DAT) HELSS: 28%
[6]; clopyralid 210 g ae/ha
  Mean % Control (10 DAT) HELSS: 83%

## Nc1c(Cl)c(Cl)nc(C(=O)O)c1Cl [Picloram, picloram]
[4]; picloram 5.6 g ae/ha
  Mean % Control (10 DAT) CHEAL: 43%
[5]; picloram 5.6 g ae/ha
  Mean % Control (10 DAT) AMARE: 43%

## O=C(O)c1ccccc1C(=O)Nc1cccc2ccccc12 [Naptalam, N-1-naphthylphthalamic acid]
[4]; naptalam 140 g ae/ha
  Mean % Control (10 DAT) CHEAL: 5%
[5]; naptalam 140 g ae/ha
  Mean % Control (10 DAT) AMARE: 0%
[6]; naptalam 56 g ae/ha
  Mean % Control (10 DAT) HELSS: 10%
[7]; naptalam 56 g ae/ha
  Mean % Control CHEAL: 0%
[8]; naptalam 56 g ae/ha
  Mean % Control AMAPA: 18.8%
[9]; naptalam 56 g ae/ha
  Mean % Control ABUTH: 0%
TRZAW; naptalam 70 g ae/ha alone (dicamba 0)
  TRZAW Mean % Injury: 0%
[10]
  Mean % Control (10 DAT) HELSS: 12%
[1]; naptalam 224 g ae/ha alone (dicamba 0)
  TRZAW Mean % Injury: 0%
[2]; [12]
  LOLPE Mean % Injury: 0 e %
[3]; [12]
  FESAR Mean % Injury: 0 c %

## COc1c(Cl)ccc(Cl)c1C(=O)O [Dicamba, 3,6-dichloro-2-methoxybenzoic acid]
[7]; dicamba 140 g ae/ha
  Mean % Control CHEAL: 86.3%
[7]; dicamba 280 g ae/ha
  Mean % Control CHEAL: 98.5%
[8]; dicamba 140 g ae/ha
  Mean % Control AMAPA: 80.0%
[8]; dicamba 280 g ae/ha
  Mean % Control AMAPA: 96.3%
[9]; dicamba 140 g ae/ha
  Mean % Control ABUTH: 65.0%
[9]; dicamba 280 g ae/ha
  Mean % Control ABUTH: 91.3%
CHEAL; 11 DAT
  CHEAL I50 (amount of dicamba for 50% injury): 35.2 g ae/ha
CHEAL
  CHEAL Fold-increase of dicamba activity = I50 (-NPA)/I50(+NPA): 1.0
ABUTH; 11 DAT
  ABUTH I50 (amount of dicamba for 50% injury): 80.2 g ae/ha
ABUTH
  ABUTH Fold-increase of dicamba activity = I50 (-NPA)/I50(+NPA): 1.0
TRZAW; dicamba alone 14.0 g ae/ha
  TRZAW Mean % Injury: 0%
TRZAW; dicamba alone 44.0 g ae/ha
  TRZAW Mean % Injury: 2.5%
TRZAW; dicamba alone 140 g ae/ha
  TRZAW Mean % Injury: 5.0%
TRZAW; dicamba alone 440 g ae/ha
  TRZAW Mean % Injury: 25.0%
TRZAW; dicamba alone 1400 g ae/ha
  TRZAW Mean % Injury: 50.0%
[1]; dicamba alone 5.6 g ae/ha
  TRZAW Mean % Injury: 0%
[1]; dicamba alone 17.7 g ae/ha
  TRZAW Mean % Injury: 0%
[1]; dicamba alone 56.0 g ae/ha
  TRZAW Mean % Injury: 0%
[1]; dicamba alone 177.0 g ae/ha
  TRZAW Mean % Injury: 0%
[1]; dicamba alone 560.0 g ae/ha
  TRZAW Mean % Injury: 76.3%
[2]; dicamba alone 28.0 g ae/ha
  LOLPE Mean % Injury: 0 e %
[2]; dicamba alone 88.5 g ae/ha
  LOLPE Mean % Injury: 0 e %
[2]; dicamba alone 280 g ae/ha
  LOLPE Mean % Injury: 0 e %
[2]; dicamba alone 885 g ae/ha
  LOLPE Mean % Injury: 0 e %
[2]; dicamba alone 2800 g ae/ha
  LOLPE Mean % Injury: 7.5 de %
[3]; dicamba alone 28.0 g ae/ha
  FESAR Mean % Injury: 0 c %
[3]; dicamba alone 88.5 g ae/ha
  FESAR Mean % Injury: 2.5 c %
[3]; dicamba alone 280 g ae/ha
  FESAR Mean % Injury: 5.0 c %
[3]; dicamba alone 885 g ae/ha
  FESAR Mean % Injury: 7.5 c %
[3]; dicamba alone 2800 g ae/ha
  FESAR Mean % Injury: 32.5 b %
